Experimental data from US10844032B2, “Substituted benzofuran, benzothiophene and indole Mcl-1 inhibitors” (Vanderbilt University, priority 2012, dated 2020).

Target: recombinant Mcl-1 (residues 172-327) (Homo sapiens (Human), UniProt Q07820)
Assay: Bak peptide fluorescence polarization anisotropy competition assay, Mcl-1
Type: binding
Conditions: Table 2, Ki range; FITC-Bak peptide 10 nM, Mcl-1 14 nM; read-out: Ki for inhibition of Mcl-1

recombinant Mcl-1 (residues 172-327), sequence (Q07820 172-327): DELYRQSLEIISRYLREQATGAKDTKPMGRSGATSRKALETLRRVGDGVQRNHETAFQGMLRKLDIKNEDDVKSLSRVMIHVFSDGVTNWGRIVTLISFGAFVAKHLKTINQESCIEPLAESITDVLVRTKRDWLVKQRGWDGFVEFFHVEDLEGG

SMILES | Ki
Cc1cc2nnnn2cc1-c1cccc2c(CCCOc3cc(C)c(Cl)c(C)c3)c(C(=O)NS(=O)(=O)c3ccccc3)[nH]c12 [Example 300, 3-(3-(4-chloro-3,5-dimethylphenoxy)propyl)-7-(7-methyltetrazolo[1,5-a]pyridin-6-yl)-N-(phenylsulfonyl)-1H-indole-2-carboxamide] | ≤ 100 nM
Cc1cc(OCCCc2c(C(=O)NS(=O)(=O)c3ccccc3)[nH]c3c(-c4ccsc4C)cccc23)cc(C)c1Cl [Example 98, 3-(3-(4-chloro-3,5-dimethylphenoxy)propyl)-7-(2-methylthiophen-3-yl)-N-(phenylsulfonyl)-1H-indole-2-carboxamide] | ≤ 100 nM
Cc1cc(OCCCc2c(C(=O)NS(=O)(=O)c3ccccc3)[nH]c3c(-c4cnn(C)c4)c(Cl)ccc23)cc(C)c1Cl [Example 121, 6-chloro-3-(3-(4-chloro-3,5-dimethylphenoxy)propyl)-7-(1-methyl-1H-pyrazol-4-yl)-N-(phenylsulfonyl)-1H-indole-2-carboxamide] | ≤ 100 nM
Cc1cc(OCCCc2c(C(=O)NS(=O)(=O)c3ccc(C(=O)O)o3)[nH]c3cc(Cl)ccc23)cc(C)c1Cl [Example 261] | ≤ 100 nM
Cc1cc(OCCCc2c(C(=O)NS(=O)(=O)c3ccccc3)[nH]c3c(-c4ccnn4C(C)C)cccc23)cc(C)c1Cl [Example 304, 3-(3-(4-chloro-3,5-dimethylphenoxy)propyl)-7-(1-isopropyl-1H-pyrazol-5-yl)-N-(phenylsulfonyl)-1H-indole-2-carboxamide] | ≤ 100 nM
COCc1nn(C)c(C)c1-c1cccc2c(CCCOc3cc(C)c(Cl)c(C)c3)c(C(=O)NS(=O)(=O)c3ccccc3)[nH]c12 [Example 130, 3-(3-(4-chloro-3,5-dimethylphenoxy)propyl)-7-(3-(methoxymethyl)-1,5-dimethyl-1H-pyrazol-4-yl)-N-(phenylsulfonyl)-1H-indole-2-carboxamide] | ≤ 100 nM
Cc1cc(OCCCc2c(C(=O)NS(=O)(=O)c3ccccc3)[nH]c3cc(Cl)ccc23)cc(C)c1Cl [Example 216, 6-chloro-3-(3-(4-chloro-3,5-dimethylphenoxy)propyl)-N-(phenylsulfonyl)-1H-indole-2-carboxamide] | ≤ 100 nM
Cc1ccncc1-c1cccc2c(CCCOc3cc(C)c(Cl)c(C)c3)c(C(=O)NS(=O)(=O)c3ccccc3)[nH]c12 [Example 89, 3-(3-(4-chloro-3,5-dimethylphenoxy)propyl)-7-(4-methylpyridin-3-yl)-N-(phenylsulfonyl)-1H-indole-2-carboxamide] | ≤ 100 nM

Same assay, conditions: read-out: Ki for inhibition of Mcl-1

SMILES | Ki
Cc1cc(OCCCc2c(C(=O)NS(=O)(=O)c3ccc(OCc4ccccc4)nc3)[nH]c3ccccc23)cc(C)c1Cl [Example 144, N-((6-(benzyloxy)pyridin-3-yl)sulfonyl)-3-(3-(4-chloro-3,5-dimethylphenoxy)propyl)-1H-indole-2-carboxamide] | 301 to 500 nM
Cc1cc(OCCCc2c(C(=O)NS(=O)(=O)c3ccc(C(=O)N4CCOCC4)o3)[nH]c3cc(Cl)ccc23)cc(C)c1Cl [Example 262, 6-chloro-3-(3-(4-chloro-3,5-dimethylphenoxy)propyl)-N-((5-(morpholine-4-carbonyl)furan-2-yl)sulfonyl)-1H-indole-2-carboxamide] | 101 to 299 nM
Cc1cc(OCCCc2c(C(=O)NS(=O)(=O)CCNS(=O)(=O)c3ccccc3)[nH]c3ccccc23)cc(C)c1Cl [Example 146, 3-(3-(4-chloro-3,5-dimethylphenoxy)propyl)-N-((2-(phenylsulfonamido)ethyl)sulfonyl)-1H-indole-2-carboxamide] | 101 to 299 nM
Cc1cc(OCCCc2c(C(=O)NS(=O)(=O)CCNC(=O)c3cccn3Cc3ccccc3)[nH]c3cc(Cl)ccc23)cc(C)c1Cl [Example 241, N-((2-(1-benzyl-1H-pyrrole-2-carboxamido)ethyl)sulfonyl)-6-chloro-3-(3-(4-chloro-3,5-dimethylphenoxy)propyl)-1H-indole-2-carboxamide] | 101 to 299 nM
Cc1cc(OCCCc2c(C(=O)NS(=O)(=O)CCNC(=O)c3c(C)nn(C)c3C)[nH]c3ccccc23)cc(C)c1Cl [Example 183, 3-(3-(4-chloro-3,5-dimethylphenoxy)propyl)-N-((2-(1,3,5-trimethyl-1H-pyrazole-4-carboxamido)ethyl)sulfonyl)-1H-indole-2-carboxamide] | 1000 to 9990 nM
Cc1cc(OCCCc2c(C(=O)NS(=O)(=O)CCNC(=O)c3cncn3C)[nH]c3ccccc23)cc(C)c1Cl [Example 187, 3-(3-(4-chloro-3,5-dimethylphenoxy)propyl)-N-((2-(1-methyl-1H-imidazole-5-carboxamido)ethyl)sulfonyl)-1H-indole-2-carboxamide] | 1000 to 9990 nM
Cc1cc(OCCCc2c(C(=O)NS(C)(=O)=O)[nH]c3c(-c4c(CO)nn(C)c4C)cccc23)cc(C)c1Cl [Example 126, 3-(3-(4-chloro-3,5-dimethylphenoxy)propyl)-7-(3-(hydroxymethyl)-1,5-dimethyl-1H-pyrazol-4-yl)-N-(methylsulfonyl)-1H-indole-2-carboxamide] | 101 to 299 nM
Cc1cc(OCCCc2c(C(=O)NS(=O)(=O)CCNC(=O)c3cccn3Cc3ccccc3)n(Cc3cccnc3)c3cc(Cl)ccc23)cc(C)c1Cl [Example 277, N-((2-(1-benzyl-1H-pyrrole-2-carboxamido)ethyl)sulfonyl)-6-chloro-3-(3-(4-chloro-3,5-dimethylphenoxy)propyl)-1-(pyridin-3-ylmethyl)-1H-indole-2-carboxamide] | 301 to 500 nM
Cc1cc(OCCCc2c(C(=O)NS(C)(=O)=O)[nH]c3c(C)c(Cl)ccc23)cc(C)c1Cl [Example 119, 6-chloro-3-(3-(4-chloro-3,5-dimethylphenoxy)propyl)-7-methyl-N-(methylsulfonyl)-1H-indole-2-carboxamide] | 101 to 299 nM
Cc1cc(OCCCc2c(C(=O)NS(=O)(=O)CCOc3ccccc3)[nH]c3ccccc23)cc(C)c1Cl [Example 141, 3-(3-(4-chloro-3,5-dimethylphenoxy)propyl)-N-((2-phenoxyethyl)sulfonyl)-1H-indole-2-carboxamide] | 301 to 500 nM
Cc1cc(OCCCc2c(C(=O)NS(=O)(=O)c3ccnc(Cl)c3)[nH]c3ccccc23)cc(C)c1Cl [Example 135, 3-(3-(4-chloro-3,5-dimethylphenoxy)propyl)-N-((2-chloropyridin-4-yl)sulfonyl)-1H-indole-2-carboxamide] | 301 to 500 nM
Cc1cc(OCCCc2c(C(=O)NS(=O)(=O)CCNC(=O)C34CC5CC(CC(C5)C3)C4)[nH]c3ccccc23)cc(C)c1Cl [Example 180, N-((2-((3r,5r,7r)-adamantane-1-carboxamido)ethyl)sulfonyl)-3-(3-(4-chloro-3,5-dimethylphenoxy)propyl)-1H-indole-2-carboxamide] | 101 to 299 nM
COc1ccc(S(=O)(=O)NC(=O)c2[nH]c3ccccc3c2CCCOc2cc(C)c(Cl)c(C)c2)c(OC)c1 [Example 138, 3-(3-(4-chloro-3,5-dimethylphenoxy)propyl)-N-((2,4-dimethoxyphenyl)sulfonyl)-1H-indole-2-carboxamide] | 301 to 500 nM
Cc1cc(OCCCc2c(C(=O)NS(=O)(=O)CCNC(=O)CCc3ccccc3)[nH]c3ccccc23)cc(C)c1Cl [Example 164, 3-(3-(4-chloro-3,5-dimethylphenoxy)propyl)-N-((2-(3-phenylpropanamido)ethyl)sulfonyl)-1H-indole-2-carboxamide] | 101 to 299 nM
